In patent US10407455B2, “Phillygenin glucuronic acid derivative as well as preparation method and application thereof” (priority 2015, dated 2019):
Where “and” joins values, the source holds several entries; their conditions need not be identical. Equal entries are not always repeated. Where two headings read alike, the source gives them in different places. Marks after values point to notes of the source that are not given here.

What was measured:
Influenza virus [1] = experiment: Influences of drugs on virus-induced CPE (antiviral effective rate, MTT), influenza virus; type: cell-based
Parainfluenza virus [2] = experiment: Influences of drugs on virus-induced CPE (antiviral effective rate, MTT), parainfluenza virus; type: cell-based; settings: Vero cells, 100TCID50, drug at nearly the maximum non-cytotoxic concentration
[3] = test system: Coxsackie virus A16 (CoxA16); experiment: Influences of drugs on virus-induced CPE (antiviral effective rate, MTT), CoxA16; type: cell-based; settings: CoxA16, Vero cells, 100TCID50, drug at nearly the maximum non-cytotoxic concentration
[4] = test system: respiratory syncytial virus (RSV); experiment: Influences of drugs on virus-induced CPE (antiviral effective rate, MTT), RSV; type: cell-based; settings: Vero cells, 100TCID50, drug at nearly the maximum non-cytotoxic concentration
[5] = test system: herpes simplex virus I (HSV-I); experiment: Influences of drugs on virus-induced CPE (antiviral effective rate, MTT), HSV-I; type: cell-based; settings: Vero cells, 100TCID50, drug at nearly the maximum non-cytotoxic concentration
adenovirus (AdV) = experiment: Influences of drugs on virus-induced CPE (antiviral effective rate, MTT), ADV; type: cell-based; settings: Vero cells, 100TCID50, drug at nearly the maximum non-cytotoxic concentration
enterovirus EV71 = experiment: Influences of drugs on virus-induced CPE (antiviral effective rate, MTT), EV71; type: cell-based; settings: EV71, Vero cells, 100TCID50, drug at nearly the maximum non-cytotoxic concentration
[6] = test system: Coxsackie virus B3 (CVB3); experiment: Influences of drugs on virus-induced CPE (antiviral effective rate, MTT), CVB3; type: cell-based; settings: CVB3, Vero cells, 100TCID50, drug at nearly the maximum non-cytotoxic concentration
influenza virus [7] = type: in vivo, Kunming mice; settings: for inhibitory effect on the virus and the mouse virus pneumonia caused by it (in words): in vivo; for Lung index (X ± S) / Lung index inhibition rate (%): mice infected with influenza virus, 5 days, n = 3
parainfluenza virus [8] = type: in vivo, Kunming mice
Vero cells = settings: 72 hours, MTT, Probit regression
Description: Performing subculture on Vero cells for 1-2 days to form sheets and have clear boundaries, performing trypsin digestion when stereoscopic impression and diopter are high, completely absorbing digestive juice when needle tip shaped holes occur on cells surfaces, blowing away the cells with milliliters of culture solution, counting, diluting to the quantity of 5×10^7 cells/L with the culture solution (DMEM containing 10% fetal calf serum), inoculating in a 96-well culture plate, and enabling the cells to grow to a single layer.
Cytotoxicity test: drugs are diluted with a maintenance solution (DMEM containing 2% fetal calf serum) according to concentrations shown in Table 1-1, and are used for cytotoxicity determination.

influenza virus [9] = type: in vivo, Kunming mice; settings: lung suspension, mice infected with influenza virus, 5 days, n = 3
parainfluenza virus [10] = type: in vivo, Kunming mice; settings: lung suspension, mice infected with parainfluenza virus, 5 days, n = 3
[11] = Influenza virus, Vero cells, 100TCID50, drug at nearly the maximum non-cytotoxic concentration
[12] = High-dose group 10.0 mg/kg/d intragastric
[13] = Low-dose group 2.25 mg/kg/d intragastric
[14] = Medium-dose group 5.0 mg/kg/d intragastric
[15] = mice infected with parainfluenza virus, 13.0 mg/kg/d (Compound I: High-dose group) intragastric, 5 days, n = 3

SMILES: COc1cc(C2OCC3C(c4ccc5c(c4)OCO5)OCC23)ccc1OC1OC(C(=O)O)C(O)C(O)C1O [Compound III, 33,34-Methylenedioxy phillygenin-8-O-β-D-glucuronide]
- antiviral effective rate (ER %) (Influenza virus [1]; [11]): 91.35** %
- antiviral effective rate (ER %) (Parainfluenza virus [2]): 92.22** %
- antiviral effective rate (ER %) [3]: 100.00** %
- antiviral effective rate (ER %) [4]: 86.18** %
- antiviral effective rate (ER %) [5]: 96.06** %
- antiviral effective rate (ER %) (adenovirus (AdV)): 22.17* %
- antiviral effective rate (ER %) (enterovirus EV71): 51.64%
- antiviral effective rate (ER %) [6]: 9.63%
- inhibitory effect on the virus and the mouse virus pneumonia caused by it (in words) (influenza virus [7]): obvious inhibitory effects
- inhibitory effect on the virus and the mouse virus pneumonia caused by it (in words) (parainfluenza virus [8]; mouse, in vivo): obvious inhibitory effects
- Maximum non-cytotoxic concentration (TC0) (Vero cells): 0.0906 g/L
- Semi-cytotoxic concentration (TC50) (Vero cells): 435 µg/mL

SMILES: COc1ccc(C2OCC3C(c4ccc(OC5OC(C(=O)O)C(O)C(O)C5O)c(O)c4)OCC23)cc1OC (stereo not shown) [Compound II]
- antiviral effective rate (ER %) (Influenza virus [1]; [11]): 92.74** %
- antiviral effective rate (ER %) (Parainfluenza virus [2]): 90.13** %
- antiviral effective rate (ER %) [3]: 99.25** %
- antiviral effective rate (ER %) [4]: 81.14** %
- antiviral effective rate (ER %) [5]: 93.35** %
- antiviral effective rate (ER %) (adenovirus (AdV)): 20.46* %
- antiviral effective rate (ER %) (enterovirus EV71): 54.32%
- antiviral effective rate (ER %) [6]: 11.18%
- inhibitory effect on the virus and the mouse virus pneumonia caused by it (in words) (influenza virus [7]): obvious inhibitory effects
- inhibitory effect on the virus and the mouse virus pneumonia caused by it (in words) (parainfluenza virus [8]; mouse, in vivo): obvious inhibitory effects
- Maximum non-cytotoxic concentration (TC0) (Vero cells): 0.103 g/L
- Semi-cytotoxic concentration (TC50) (Vero cells): 412 µg/mL

SMILES: COc1cc(C2OCC3C(c4ccc(OC5OC(C(=O)O)C(O)C(O)C5O)c(OC)c4)OCC23)ccc1O (stereo not shown) [Compound I]
- antiviral effective rate (ER %) (Influenza virus [1]; [11]): 95.81** %
- antiviral effective rate (ER %) (Parainfluenza virus [2]): 96.24** %
- antiviral effective rate (ER %) [3]: 100.00** %
- antiviral effective rate (ER %) [4]: 83.21** %
- antiviral effective rate (ER %) [5]: 91.23** %
- antiviral effective rate (ER %) (adenovirus (AdV)): 21.26* %
- antiviral effective rate (ER %) (enterovirus EV71): 52.15%
- antiviral effective rate (ER %) [6]: 10.16%
- Lung index (X ± S) (influenza virus [7]; [12]): 1.145 ± 0.037
- Lung index inhibition rate (%) (influenza virus [7]; [12]): 22.82%
- Lung index (X ± S) (influenza virus [7]; [13]): 1.225 ± 0.034
- Lung index inhibition rate (%) (influenza virus [7]; [13]): 17.85%
- Lung index (X ± S) (influenza virus [7]; [14]): 1.187 ± 0.028
- Lung index inhibition rate (%) (influenza virus [7]; [14]): 20.03%
- inhibitory effect on the virus and the mouse virus pneumonia caused by it (in words) (influenza virus [7]): obvious inhibitory effects
- Lung index (X ± S) (parainfluenza virus [8]; mouse, in vivo): 1.277 ± 0.054 and 1.318 ± 0.028
- Lung index inhibition rate (%) (parainfluenza virus [8]; mouse, in vivo): 19.73% and 16.94%
- inhibitory effect on the virus and the mouse virus pneumonia caused by it (in words) (parainfluenza virus [8]; mouse, in vivo): obvious inhibitory effects
- Lung index (X ± S) (parainfluenza virus [8]; mouse, in vivo, 13 mg/kg/day): 1.239 ± 0.037
- Lung index inhibition rate (%) (parainfluenza virus [8]; mouse, in vivo, 13 mg/kg/day): 22.26%
- Hemagglutination titer (InX) (influenza virus [9]; [12]): 19.24 ± 0.513
- Inhibition rate (%) of hemagglutination titer (influenza virus [9]; [12]): 40.28%
- Hemagglutination titer (InX) (influenza virus [9]; [13]): 22.16 ± 1.270
- Inhibition rate (%) of hemagglutination titer (influenza virus [9]; [13]): 31.26%
- Hemagglutination titer (InX) (influenza virus [9]; [14]): 20.37 ± 0.285
- Inhibition rate (%) of hemagglutination titer (influenza virus [9]; [14]): 36.32%
- Hemagglutination titer (InX) (parainfluenza virus [10]; [12]): 19.68 ± 0.638
- Inhibition rate (%) of hemagglutination titer (parainfluenza virus [10]; [12]): 38.36%
- Hemagglutination titer (InX) (parainfluenza virus [10]; [13]): 21.62 ± 0.553
- Inhibition rate (%) of hemagglutination titer (parainfluenza virus [10]; [13]): 33.61%
- Hemagglutination titer (InX) (parainfluenza virus [10]; [14]): 20.47 ± 0.583
- Inhibition rate (%) of hemagglutination titer (parainfluenza virus [10]; [14]): 36.32%
- Maximum non-cytotoxic concentration (TC0) (Vero cells): 0.106 g/L
- Semi-cytotoxic concentration (TC50) (Vero cells): 482 µg/mL

SMILES: CCOC(=O)C1=C[C@@H](OC(CC)CC)[C@H](NC(C)=O)[C@@H](N)C1 [Oseltamivir phosphate, reference compound]
- antiviral effective rate (ER %) (Influenza virus [1]; [11]): 82.19** %
- antiviral effective rate (ER %) (Parainfluenza virus [2]): 92.11** %
- antiviral effective rate (ER %) [3]: 2.94%
- antiviral effective rate (ER %) [4]: 39.22%
- antiviral effective rate (ER %) [5]: 63.24** %
- antiviral effective rate (ER %) (adenovirus (AdV)): 12.12%
- antiviral effective rate (ER %) (enterovirus EV71): 48.65%
- antiviral effective rate (ER %) [6]: 1.53%
- Lung index (X ± S) (influenza virus [7]; 19.5 mg/kg/d intragastric): 1.176 ± 0.045
- Lung index inhibition rate (%) (influenza virus [7]; 19.5 mg/kg/d intragastric): 19.76%
- Lung index (X ± S) (parainfluenza virus [8]; mouse, in vivo, 19.5 mg/kg/day): 1.241 ± 0.046
- Lung index inhibition rate (%) (parainfluenza virus [8]; mouse, in vivo, 19.5 mg/kg/day): 21.83%
- Hemagglutination titer (InX) (influenza virus [9]; 19.5 mg/kg/d intragastric): 20.47 ± 1.104
- Inhibition rate (%) of hemagglutination titer (influenza virus [9]; 19.5 mg/kg/d intragastric): 35.26%
- Hemagglutination titer (InX) (parainfluenza virus [10]; 19.5 mg/kg/d intragastric): 23.24 ± 1.242
- Inhibition rate (%) of hemagglutination titer (parainfluenza virus [10]; 19.5 mg/kg/d intragastric): 31.14%
- Maximum non-cytotoxic concentration (TC0) (Vero cells): 0.27 g/L
- Semi-cytotoxic concentration (TC50) (Vero cells): 834 µg/mL

SMILES: COc1cc([C@H]2OC[C@H]3[C@@H]2CO[C@H]3c2ccc(OC)c(OC)c2)ccc1O [Phillygenin]
- antiviral effective rate (ER %) (Influenza virus [1]; [11]): 88.17** %
- antiviral effective rate (ER %) (Parainfluenza virus [2]): 94.06** %
- antiviral effective rate (ER %) [3]: 97.03** %
- antiviral effective rate (ER %) [4]: 81.41** %
- antiviral effective rate (ER %) [5]: 85.36** %
- antiviral effective rate (ER %) (adenovirus (AdV)): 14.25* %
- antiviral effective rate (ER %) (enterovirus EV71): 32.27%
- antiviral effective rate (ER %) [6]: 2.29%
- Lung index (X ± S) (influenza virus [7]; 13.0 mg/kg/d intragastric): 1.208 ± 0.025
- Lung index inhibition rate (%) (influenza virus [7]; 13.0 mg/kg/d intragastric): 11.67%
- Lung index (X ± S) (parainfluenza virus [8]; [15]): 1.349 ± 0.046
- Lung index inhibition rate (%) (parainfluenza virus [8]; [15]): 14.56%
- Hemagglutination titer (InX) (influenza virus [9]; 13.0 mg/kg/d intragastric): 21.15 ± 1.024
- Inhibition rate (%) of hemagglutination titer (influenza virus [9]; 13.0 mg/kg/d intragastric): 29.15%
- Hemagglutination titer (InX) (parainfluenza virus [10]; 13.0 mg/kg/d intragastric): 23.63 ± 1.156
- Inhibition rate (%) of hemagglutination titer (parainfluenza virus [10]; 13.0 mg/kg/d intragastric): 27.75%
- Maximum non-cytotoxic concentration (TC0) (Vero cells): 0.012 g/L
- Semi-cytotoxic concentration (TC50) (Vero cells): 293 µg/mL

SMILES: NC(=O)c1ncn([C@@H]2O[C@H](CO)[C@@H](O)[C@H]2O)n1 [Ribavirin, reference compound]
- antiviral effective rate (ER %) (Influenza virus [1]): 56.44** %
- antiviral effective rate (ER %) (Parainfluenza virus [2]): 95.13** %
- antiviral effective rate (ER %) [3]: 0.72%
- antiviral effective rate (ER %) [4]: 52.15* %
- antiviral effective rate (ER %) [5]: 64.65** %
- antiviral effective rate (ER %) (adenovirus (AdV)): 0.47%
- antiviral effective rate (ER %) (enterovirus EV71): 4.03** %
- antiviral effective rate (ER %) [6]: 12.14%
- Hemagglutination titer (InX) (influenza virus [9]; 58.5 mg/kg/d intragastric): 21.87 ± 1.050
- Inhibition rate (%) of hemagglutination titer (influenza virus [9]; 58.5 mg/kg/d intragastric): 32.35%
- Hemagglutination titer (InX) (parainfluenza virus [10]; 58.5 mg/kg/d intragastric): 24.32 ± 1.123
- Inhibition rate (%) of hemagglutination titer (parainfluenza virus [10]; 58.5 mg/kg/d intragastric): 23.25%
